The target of one assay is NLRP3 (Mus musculus, UniProt Q8R4B8). The experiment in a line: Inhibition of canonical NLRP3 activation (LPS+ATP/Nig) in J774A.1 cells, IL-1β release by ELISA, single concentration. In kind it is cell-based. The note with it: 1 µM compound, LPS + 5 mM ATP or 10 µM Nig, compared with the positive control. Details: The mouse macrophage cell line J774A.1 was used, and LPS was used as the first signal; host or cells: J774A.1 mouse monocyte-macrophage cell line. As for the experimental part: J774A.1 cells were plated in a 48-well plate at a density of 1.0×10^6 cells/mL, with 300 µL per well. Subsequently, NLRP3 was activated using LPS+5 mM ATP (adenosine triphosphate) or 10 µM Nig (nigericin). […] ATP was purchased from Sigma, Cat. No.: L2654. Nig was purchased from Shanghai Yuanye Bio-Technology Co., Ltd., Cat. No.: S45490.
NLRP3, sequence (Q8R4B8 whole entry): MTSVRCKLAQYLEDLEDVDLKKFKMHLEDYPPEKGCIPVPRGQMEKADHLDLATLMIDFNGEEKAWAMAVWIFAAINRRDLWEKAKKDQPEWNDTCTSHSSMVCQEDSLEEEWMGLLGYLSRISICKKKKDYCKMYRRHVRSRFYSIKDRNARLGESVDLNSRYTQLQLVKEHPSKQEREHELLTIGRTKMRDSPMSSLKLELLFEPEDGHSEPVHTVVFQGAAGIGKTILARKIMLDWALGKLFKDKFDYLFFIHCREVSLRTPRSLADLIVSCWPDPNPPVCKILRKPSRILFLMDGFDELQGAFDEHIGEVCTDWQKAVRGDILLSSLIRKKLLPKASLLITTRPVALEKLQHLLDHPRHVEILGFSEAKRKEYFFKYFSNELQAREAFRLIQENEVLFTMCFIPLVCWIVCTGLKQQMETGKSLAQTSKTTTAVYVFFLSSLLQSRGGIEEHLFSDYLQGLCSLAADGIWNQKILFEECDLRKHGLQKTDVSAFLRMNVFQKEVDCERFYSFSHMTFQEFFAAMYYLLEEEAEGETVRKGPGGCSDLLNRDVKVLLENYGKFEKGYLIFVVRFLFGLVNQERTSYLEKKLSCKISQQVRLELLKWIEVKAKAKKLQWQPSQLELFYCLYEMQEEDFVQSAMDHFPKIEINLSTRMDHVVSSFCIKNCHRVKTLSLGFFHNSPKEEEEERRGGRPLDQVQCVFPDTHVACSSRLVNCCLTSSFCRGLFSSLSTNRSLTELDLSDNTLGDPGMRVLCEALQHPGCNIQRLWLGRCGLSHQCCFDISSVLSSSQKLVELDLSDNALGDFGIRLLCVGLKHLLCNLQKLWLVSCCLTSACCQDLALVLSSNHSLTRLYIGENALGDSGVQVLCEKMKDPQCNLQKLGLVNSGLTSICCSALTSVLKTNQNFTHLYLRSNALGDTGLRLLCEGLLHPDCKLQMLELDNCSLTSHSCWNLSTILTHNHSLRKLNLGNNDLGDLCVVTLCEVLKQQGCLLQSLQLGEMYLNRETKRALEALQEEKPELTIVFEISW
Experimental groups: a negative control group, an LPS-alone incubation control group, an LPS+ATP or +Nig positive control group, and an example compound experimental group.
After the plated J774A.1 cells adhering to the plate, the culture medium was replaced. For all the groups except the negative control group, the culture medium was completely replaced with cell culture medium containing 1 µg/mL LPS. The negative control group received cell culture medium. Then, all the groups were incubated overnight. 18 h later, the culture medium was replaced again. The culture medium of the example compound experimental group was completely replaced with cell culture medium containing the compounds; while the negative control group, the LPS-alone incubation control group, and the LPS+ATP/Nig positive control group received cell culture medium. 1 h later, the culture mediums of the LPS+ATP/Nig positive control group and the example compound experimental group were completely replaced with cell culture medium containing 5 mM ATP or 10 µM Nig. 1 h later, the cell supernatants were collected for IL-1β detection.
Therefore, the relative change in the amount of IL-1β release may directly reflect NLRP3 inhibitory effect.
On the technique in general: ELISA stands for enzyme-linked immunosorbent assay.
For `CCN(CC)Cc1cc(S(=O)(=O)NC(=O)Nc2c3c(cc4c2CCC4)CCC3)ccc1OC` [Example 13], the “inhibition of IL-1β release” value is given as “no inhibitory effect”.

Staying with this assay, now noted: J774.A1, 1 µM compound, LPS + 5 mM ATP or 10 µM Nig, compared with the positive control, read-out: inhibition of IL-1β release.
Usually inhibition stands for the percentage by which the read-out fell short of the control. For `COc1ccc(S(=O)(=O)NC(=O)Nc2c3c(cc4c2CCC4)CCC3)c(Cl)c1CN(C)C` [Example 28, 2-chloro-3-((dimethylamino)methyl)-N-((1,2,3,5,6,7-hexahydro-s-indacen-4-yl)carbamoyl)-4-methoxybenzenesulfonamide], the inhibition at 1 µM was above 80%.
`CC(C)Oc1ccc(S(=O)(=O)NC(=O)Nc2c3c(cc4c2CCC4)CCC3)cc1CN(C)C` [Example 15, 3-((dimethylamino)methyl)-N-((1,2,3,5,6,7-hexahydro-s-indacen-4-yl)carbamoyl)-4-isopropoxybenzenesulfonamide]: the inhibition at 1 µM was above 80%.
In the case of `CN(C)Cc1ccc(F)c(S(=O)(=O)NC(=O)Nc2c3c(cc4c2CCC4)CCC3)c1` [Example 2, 5-((dimethylamino)methyl)-2-fluoro-N-((1,2,3,5,6,7-hexahydro-s-indacen-4-yl)carbamoyl)benzenesulfonamide], the inhibition at 1 µM was above 80%.
Turning to `CN(C)Cc1ccc(Cl)c(S(=O)(=O)NC(=O)Nc2c3c(cc4c2CCC4)CCC3)c1` [Example 10, 2-chloro-5-((dimethylamino)methyl)-N-((1,2,3,5,6,7-hexahydro-s-indacen-4-yl)carbamoyl)benzenesulfonamide], the inhibition at 1 µM was above 80%.
Take `CN(C)Cc1cc(S(=O)(=O)NC(=O)Nc2c3c(cc4c2CCC4)CCC3)ccc1F` [Example 6, 3-((dimethylamino)methyl)-4-fluoro-N-((1,2,3,5,6,7-hexahydro-s-indacen-4-yl)carbamoyl)benzenesulfonamide]: the inhibition at 1 µM was above 80%.
Turning to `CN(C)Cc1cc(S(=O)(=O)NC(=O)Nc2c3c(cc4c2CCC4)CCC3)ccc1OC(F)(F)F` [Example 9, 3-((dimethylamino)methyl)-N-((1,2,3,5,6,7-hexahydro-s-indacen-4-yl)carbamoyl)-4-(trifluoromethoxy)benzenesulfonamide], the inhibition at 1 µM was 20 to 80%.
As to `CN(C)Cc1cc(S(=O)(=O)NC(=O)Nc2c3c(cc4c2CCC4)CCC3)ccc1N` [Example 7, 4-amino-3-((dimethylamino)methyl)-N-((1,2,3,5,6,7-hexahydro-s-indacen-4-yl)carbamoyl)benzenesulfonamide], the inhibition at 1 µM was above 80%.
For `CN(C)Cc1ccc([N+](=O)[O-])c(S(=O)(=O)NC(=O)Nc2c3c(cc4c2CCC4)CCC3)c1` [Example 11, 5-((dimethylamino)methyl)-N-((1,2,3,5,6,7-hexahydro-s-indacen-4-yl)carbamoyl)-2-nitrobenzenesulfonamide], the inhibition at 1 µM was above 80%.
Consider `CN(C)Cc1ccc(N)c(S(=O)(=O)NC(=O)Nc2c3c(cc4c2CCC4)CCC3)c1` [Example 12, 2-amino-5-((dimethylamino)methyl)-N-((1,2,3,5,6,7-hexahydro-s-indacen-4-yl)carbamoyl)benzenesulfonamide], for which the inhibition at 1 µM was in the range of 20 to 80%.
On to `CN(C)Cc1cc(S(=O)(=O)NC(=O)Nc2c3c(cc4c2CCC4)CCC3)ccc1Cl` [Example 8, 4-chloro-3-((dimethylamino)methyl)-N-((1,2,3,5,6,7-hexahydro-s-indacen-4-yl)carbamoyl)benzenesulfonamide], for which the inhibition at 1 µM lay in the range of 20 to 80%.
Regarding `COc1c(F)cc(S(=O)(=O)NC(=O)Nc2c3c(cc4c2CCC4)CCC3)cc1CN(C)C` [Example 16, 3-((dimethylamino)methyl)-5-fluoro-N-((1,2,3,5,6,7-hexahydro-s-indacen-4-yl)carbamoyl)-4-methoxybenzenesulfonamide], the inhibition at 1 µM lay within 20 to 80%.

The same assay, now with this note: J774.A1, read-out: inhibition of IL-1β release, 1 µM compound, LPS + 5 mM ATP or 10 µM Nig, compared with the positive control.
On to `CN(C)Cc1cc(S(=O)(=O)NC(=O)Nc2c3c(cc4c2CCC4)CCC3)ccc1OCc1ccccc1` [Example 4], for which the inhibition at 1 µM is above 80%.

The values above are taken from patent EP4796530A1 (Biocells (Beijing) Biotech Co., Ltd., priority 2023, dated 2025).
